{"source": "paper PMC7180948", "about": "“New Insights into 4-Anilinoquinazolines as Inhibitors of Cardiac Troponin I–Interacting Kinase (TNNi3K)” (Molecules, 2020)", "experiment_in_all_cases": "biochemical", "set-up_in_all_cases": "KINOMEscan competition binding panel (Eurofins DiscoverX), single concentration, % inhibition", "details_in_all_cases": "read-out: 7 at 1 µM % inhibition", "key": {"CSNK1D": {"target": "CSNK1D (Homo sapiens, UniProt P48730)", "in_short": "(§1)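 Selectivity profile from a KINOMEscan run against >400 human kinases; test concentration 1 µM.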"}, "EPHA4": {"target": "EPHA4 (Homo sapiens, UniProt P54764)", "in_short": "as §1"}, "EPHB4": {"target": "EPHB4 (Homo sapiens, UniProt P54760)", "sequence (P54760 whole entry)": "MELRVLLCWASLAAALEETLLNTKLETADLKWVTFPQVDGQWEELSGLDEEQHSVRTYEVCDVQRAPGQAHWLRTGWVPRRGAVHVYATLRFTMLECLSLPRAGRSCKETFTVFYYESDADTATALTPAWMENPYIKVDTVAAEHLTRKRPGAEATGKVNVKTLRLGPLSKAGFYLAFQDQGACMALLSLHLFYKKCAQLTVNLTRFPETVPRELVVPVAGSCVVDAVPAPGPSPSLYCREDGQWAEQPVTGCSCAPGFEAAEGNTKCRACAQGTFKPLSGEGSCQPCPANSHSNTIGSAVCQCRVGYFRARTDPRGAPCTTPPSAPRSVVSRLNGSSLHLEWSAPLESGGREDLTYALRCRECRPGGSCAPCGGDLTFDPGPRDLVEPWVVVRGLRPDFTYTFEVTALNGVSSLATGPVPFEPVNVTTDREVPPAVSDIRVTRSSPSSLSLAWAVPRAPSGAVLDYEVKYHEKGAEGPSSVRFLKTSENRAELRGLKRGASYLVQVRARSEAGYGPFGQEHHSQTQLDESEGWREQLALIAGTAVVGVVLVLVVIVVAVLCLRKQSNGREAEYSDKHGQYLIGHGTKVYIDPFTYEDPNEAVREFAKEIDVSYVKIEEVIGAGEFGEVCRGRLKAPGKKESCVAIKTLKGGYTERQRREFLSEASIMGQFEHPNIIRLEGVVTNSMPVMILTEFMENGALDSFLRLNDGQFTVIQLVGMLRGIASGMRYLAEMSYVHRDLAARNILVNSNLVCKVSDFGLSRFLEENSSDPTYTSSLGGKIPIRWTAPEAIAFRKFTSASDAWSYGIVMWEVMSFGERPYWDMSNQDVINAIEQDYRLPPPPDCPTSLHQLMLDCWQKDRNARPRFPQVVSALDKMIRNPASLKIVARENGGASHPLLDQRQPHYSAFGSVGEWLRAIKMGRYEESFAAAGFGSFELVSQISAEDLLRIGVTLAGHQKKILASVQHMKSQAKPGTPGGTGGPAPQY", "in_short": "as §1"}, "EPHB6": {"target": "EPHB6 (Homo sapiens, UniProt O15197)", "in_short": "as §1"}, "GSK3B": {"target": "GSK3B (Homo sapiens, UniProt P49841)", "in_short": "as §1"}, "HASPIN": {"target": "HASPIN (Homo sapiens, UniProt Q8TF76)", "in_short": "as §1"}, "KIT(D816H)": {"target": "KIT(D816H) (Homo sapiens, UniProt P10721, D816H)", "in_short": "as §1"}, "MAP3K3": {"target": "MAP3K3 (Homo sapiens, UniProt Q99759)", "in_short": "as §1"}, "MAP4K2": {"target": "MAP4K2 (Homo sapiens, UniProt Q12851)", "in_short": "as §1"}, "MEK2": {"target": "T1, MEK2 (Homo sapiens, UniProt P36507)", "T1 construct": "gene MAP2K2", "in_short": "as §1"}, "MKNK1": {"target": "MKNK1 (Homo sapiens, UniProt Q9BUB5)", "in_short": "as §1"}, "MLK1": {"target": "T2, MLK1 (Homo sapiens, UniProt P80192)", "T2 construct": "gene MAP3K9", "in_short": "as §1"}, "MLK3": {"target": "T3, MLK3 (Homo sapiens, UniProt Q16584)", "T3 construct": "gene MAP3K11", "T3 sequence (Q16584 whole entry)": "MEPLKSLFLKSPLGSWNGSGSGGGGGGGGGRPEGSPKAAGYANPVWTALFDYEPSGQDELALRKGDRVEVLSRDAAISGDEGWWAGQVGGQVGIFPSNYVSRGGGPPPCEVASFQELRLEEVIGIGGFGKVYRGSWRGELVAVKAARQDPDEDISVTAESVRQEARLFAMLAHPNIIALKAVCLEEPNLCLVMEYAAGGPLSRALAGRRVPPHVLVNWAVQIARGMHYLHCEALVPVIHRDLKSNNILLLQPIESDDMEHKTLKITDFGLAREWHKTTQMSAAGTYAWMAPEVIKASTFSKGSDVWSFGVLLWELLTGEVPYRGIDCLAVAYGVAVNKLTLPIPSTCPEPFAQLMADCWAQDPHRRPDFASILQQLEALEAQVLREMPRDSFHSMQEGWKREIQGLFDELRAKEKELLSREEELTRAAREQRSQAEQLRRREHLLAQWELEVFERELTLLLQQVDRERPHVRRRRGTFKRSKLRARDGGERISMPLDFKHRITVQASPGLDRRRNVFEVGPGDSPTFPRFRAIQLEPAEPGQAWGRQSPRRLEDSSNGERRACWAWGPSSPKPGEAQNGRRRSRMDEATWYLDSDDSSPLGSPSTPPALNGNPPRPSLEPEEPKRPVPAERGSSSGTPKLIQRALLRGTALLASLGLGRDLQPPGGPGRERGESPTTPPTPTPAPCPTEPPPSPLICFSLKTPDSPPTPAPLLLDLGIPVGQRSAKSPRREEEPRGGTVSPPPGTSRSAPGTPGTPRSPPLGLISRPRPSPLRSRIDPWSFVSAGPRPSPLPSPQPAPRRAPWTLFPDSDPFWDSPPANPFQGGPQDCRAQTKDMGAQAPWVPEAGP", "in_short": "as §1"}, "PAK7": {"target": "T4, PAK7 (Homo sapiens, UniProt Q9P286)", "T4 construct": "gene PAK5", "T4 sequence (Q9P286 whole entry)": "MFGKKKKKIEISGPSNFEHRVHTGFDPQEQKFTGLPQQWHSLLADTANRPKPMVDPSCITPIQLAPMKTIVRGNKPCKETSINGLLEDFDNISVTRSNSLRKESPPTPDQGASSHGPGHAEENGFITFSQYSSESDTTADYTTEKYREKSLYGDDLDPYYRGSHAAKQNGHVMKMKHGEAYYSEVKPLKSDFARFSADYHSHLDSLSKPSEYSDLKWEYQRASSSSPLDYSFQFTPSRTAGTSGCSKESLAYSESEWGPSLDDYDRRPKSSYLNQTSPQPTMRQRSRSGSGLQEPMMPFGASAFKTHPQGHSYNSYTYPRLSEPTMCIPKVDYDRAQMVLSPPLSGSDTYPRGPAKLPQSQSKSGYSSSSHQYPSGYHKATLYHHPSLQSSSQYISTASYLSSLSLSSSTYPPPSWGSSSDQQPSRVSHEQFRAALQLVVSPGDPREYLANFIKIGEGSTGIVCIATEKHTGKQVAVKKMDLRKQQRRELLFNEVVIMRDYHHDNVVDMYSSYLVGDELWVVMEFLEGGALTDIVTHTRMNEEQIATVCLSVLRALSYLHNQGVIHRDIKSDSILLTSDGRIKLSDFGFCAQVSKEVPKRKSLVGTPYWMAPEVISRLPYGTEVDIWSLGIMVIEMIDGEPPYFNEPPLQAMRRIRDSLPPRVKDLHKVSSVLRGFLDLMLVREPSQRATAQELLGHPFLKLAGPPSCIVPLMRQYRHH", "in_short": "as §1"}, "PRKD2": {"target": "PRKD2 (Homo sapiens, UniProt Q9BZL6)", "in_short": "as §1"}, "RET": {"target": "RET (Homo sapiens, UniProt P07949)", "in_short": "as §1"}, "[1]": {"target": "T5, RSK4(Kin.Dom.2-C-terminal) (Homo sapiens, UniProt Q9UK32)", "T5 construct": "gene RPS6KA6; Kin.Dom.2-C-terminal", "T5 sequence (Q9UK32 whole entry)": "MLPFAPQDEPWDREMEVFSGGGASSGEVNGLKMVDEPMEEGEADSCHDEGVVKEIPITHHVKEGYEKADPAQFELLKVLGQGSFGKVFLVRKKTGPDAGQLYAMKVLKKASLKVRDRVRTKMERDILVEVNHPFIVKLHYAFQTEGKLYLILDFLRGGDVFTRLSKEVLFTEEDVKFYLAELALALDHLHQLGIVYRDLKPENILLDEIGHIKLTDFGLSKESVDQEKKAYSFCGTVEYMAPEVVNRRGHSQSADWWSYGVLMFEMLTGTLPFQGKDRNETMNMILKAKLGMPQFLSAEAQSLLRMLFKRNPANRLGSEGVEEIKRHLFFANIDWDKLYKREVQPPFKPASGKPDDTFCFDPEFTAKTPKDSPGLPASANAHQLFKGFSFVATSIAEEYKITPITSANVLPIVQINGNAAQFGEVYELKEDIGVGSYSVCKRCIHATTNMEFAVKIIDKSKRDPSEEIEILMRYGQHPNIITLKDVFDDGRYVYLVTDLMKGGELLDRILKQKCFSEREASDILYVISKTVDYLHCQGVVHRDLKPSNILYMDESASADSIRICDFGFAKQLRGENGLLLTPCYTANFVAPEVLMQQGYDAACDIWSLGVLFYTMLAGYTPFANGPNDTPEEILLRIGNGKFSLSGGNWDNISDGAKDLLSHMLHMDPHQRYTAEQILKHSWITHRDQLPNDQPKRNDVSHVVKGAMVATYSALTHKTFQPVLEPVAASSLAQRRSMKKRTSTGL", "in_short": "as §1"}, "SBK1": {"target": "SBK1 (Homo sapiens, UniProt Q52WX2)", "in_short": "as §1"}, "STK39": {"target": "STK39 (Homo sapiens, UniProt Q9UEW8)", "in_short": "as §1"}, "TAOK3": {"target": "TAOK3 (Homo sapiens, UniProt Q9H2K8)", "in_short": "as §1"}, "TIE1": {"target": "TIE1 (Homo sapiens, UniProt P35590)", "in_short": "as §1"}, "WNK3": {"target": "WNK3 (Homo sapiens, UniProt Q9BYP7)", "sequence (Q9BYP7 whole entry)": "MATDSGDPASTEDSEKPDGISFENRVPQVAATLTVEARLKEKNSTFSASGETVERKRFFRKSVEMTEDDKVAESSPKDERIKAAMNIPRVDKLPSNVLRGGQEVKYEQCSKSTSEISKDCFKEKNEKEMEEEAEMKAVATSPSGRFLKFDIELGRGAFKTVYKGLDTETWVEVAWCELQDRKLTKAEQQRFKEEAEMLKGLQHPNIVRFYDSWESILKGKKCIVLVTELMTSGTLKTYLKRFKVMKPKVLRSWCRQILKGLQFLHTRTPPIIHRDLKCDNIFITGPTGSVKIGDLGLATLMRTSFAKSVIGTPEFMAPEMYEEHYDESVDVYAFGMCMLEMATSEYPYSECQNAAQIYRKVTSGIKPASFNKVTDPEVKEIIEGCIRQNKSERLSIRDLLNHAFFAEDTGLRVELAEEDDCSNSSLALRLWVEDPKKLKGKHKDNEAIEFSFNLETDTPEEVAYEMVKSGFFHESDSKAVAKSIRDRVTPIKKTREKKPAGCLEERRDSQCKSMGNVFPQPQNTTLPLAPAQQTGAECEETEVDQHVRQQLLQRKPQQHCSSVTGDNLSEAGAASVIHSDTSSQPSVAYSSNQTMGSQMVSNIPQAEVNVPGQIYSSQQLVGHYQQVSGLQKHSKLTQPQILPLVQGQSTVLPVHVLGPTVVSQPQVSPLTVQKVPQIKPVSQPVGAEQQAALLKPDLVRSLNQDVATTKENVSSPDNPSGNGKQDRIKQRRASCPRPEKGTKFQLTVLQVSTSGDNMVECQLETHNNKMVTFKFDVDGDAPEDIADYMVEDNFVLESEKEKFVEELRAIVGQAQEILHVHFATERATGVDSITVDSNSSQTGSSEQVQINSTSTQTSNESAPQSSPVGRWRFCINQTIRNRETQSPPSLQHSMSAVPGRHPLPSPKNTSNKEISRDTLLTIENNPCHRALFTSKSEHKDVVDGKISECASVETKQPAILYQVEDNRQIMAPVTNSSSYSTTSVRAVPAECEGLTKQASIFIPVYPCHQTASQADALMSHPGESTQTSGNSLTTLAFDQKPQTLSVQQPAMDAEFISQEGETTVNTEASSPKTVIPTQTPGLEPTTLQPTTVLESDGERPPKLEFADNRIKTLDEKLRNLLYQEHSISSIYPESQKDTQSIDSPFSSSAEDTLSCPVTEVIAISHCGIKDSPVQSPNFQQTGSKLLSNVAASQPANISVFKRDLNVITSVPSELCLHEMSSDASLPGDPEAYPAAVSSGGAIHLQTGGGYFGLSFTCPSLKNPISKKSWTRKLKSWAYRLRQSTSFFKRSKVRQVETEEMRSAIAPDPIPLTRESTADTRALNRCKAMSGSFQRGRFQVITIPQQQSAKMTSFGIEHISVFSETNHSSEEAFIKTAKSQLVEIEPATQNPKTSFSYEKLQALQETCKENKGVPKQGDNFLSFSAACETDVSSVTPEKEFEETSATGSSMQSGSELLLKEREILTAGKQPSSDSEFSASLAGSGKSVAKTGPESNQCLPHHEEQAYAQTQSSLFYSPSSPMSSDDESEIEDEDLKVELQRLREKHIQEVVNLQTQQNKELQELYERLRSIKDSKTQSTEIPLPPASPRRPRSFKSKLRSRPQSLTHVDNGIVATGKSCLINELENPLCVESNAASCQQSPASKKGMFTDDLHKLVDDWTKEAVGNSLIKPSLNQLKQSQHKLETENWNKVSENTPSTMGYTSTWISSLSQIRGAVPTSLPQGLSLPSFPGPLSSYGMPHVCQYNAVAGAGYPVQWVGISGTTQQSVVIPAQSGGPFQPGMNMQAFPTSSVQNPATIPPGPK", "in_short": "as §1"}, "WNK4": {"target": "WNK4 (Homo sapiens, UniProt Q96J92)", "in_short": "as §1"}, "p38-gamma": {"target": "T6, p38-gamma (Homo sapiens, UniProt P53778)", "T6 construct": "gene MAPK12", "in_short": "as §1"}}}
{"smiles": "CNS(=O)(=O)c1ccc(N(C)C)c(Nc2ncnc3cc(OC)c(OC)cc23)c1", "note": "[compound 7, 3-((6,7-dimethoxyquinazolin-4-yl)amino)-4-(dimethylamino)-N-methylbenzenesulfonamide]", "values": [{"measurement": "inhibition at 1 µM", "setting": "CSNK1D", "value": 0, "unit": "%"}, {"measurement": "inhibition at 1 µM", "setting": "EPHA4", "value": 0, "unit": "%"}, {"measurement": "inhibition at 1 µM", "setting": "EPHB4", "value": 0, "unit": "%"}, {"measurement": "inhibition at 1 µM", "setting": "EPHB6", "value": 15, "unit": "%"}, {"measurement": "inhibition at 1 µM", "setting": "GSK3B", "value": 0, "unit": "%"}, {"measurement": "inhibition at 1 µM", "setting": "HASPIN", "value": 3, "unit": "%"}, {"measurement": "inhibition at 1 µM", "setting": "KIT(D816H)", "value": 100, "unit": "%"}, {"measurement": "inhibition at 1 µM", "setting": "MAP3K3", "value": 30, "unit": "%"}, {"measurement": "inhibition at 1 µM", "setting": "MAP4K2", "value": 41, "unit": "%"}, {"measurement": "inhibition at 1 µM", "setting": "MEK2", "value": 25, "unit": "%"}, {"measurement": "inhibition at 1 µM", "setting": "MKNK1", "value": 10, "unit": "%"}, {"measurement": "inhibition at 1 µM", "setting": "MLK1", "value": 10, "unit": "%"}, {"measurement": "inhibition at 1 µM", "setting": "MLK3", "value": 0, "unit": "%"}, {"measurement": "inhibition at 1 µM", "setting": "PAK7", "value": 0, "unit": "%"}, {"measurement": "inhibition at 1 µM", "setting": "PRKD2", "value": 8, "unit": "%"}, {"measurement": "inhibition at 1 µM", "setting": "RET", "value": 11, "unit": "%"}, {"measurement": "inhibition at 1 µM", "setting": "[1]", "value": 24, "unit": "%"}, {"measurement": "inhibition at 1 µM", "setting": "SBK1", "value": 29, "unit": "%"}, {"measurement": "inhibition at 1 µM", "setting": "STK39", "value": 8, "unit": "%"}, {"measurement": "inhibition at 1 µM", "setting": "TAOK3", "value": 29, "unit": "%"}, {"measurement": "inhibition at 1 µM", "setting": "TIE1", "value": 0, "unit": "%"}, {"measurement": "inhibition at 1 µM", "setting": "WNK3", "value": 2, "unit": "%"}, {"measurement": "inhibition at 1 µM", "setting": "WNK4", "value": 0, "unit": "%"}, {"measurement": "inhibition at 1 µM", "setting": "p38-gamma", "value": 0, "unit": "%"}]}
